The source of these data is patent publication US6653478B2, “Substituted benzimidazol-2-ones as vasopressin receptor antagonists and neuropeptide Y modulators” (Ortho-McNeil Pharmaceutical, Inc., priority 2000, dated 2003).

One test addresses human V1a receptor (Homo sapiens, UniProt P37288). The experiment in a line: V1a binding assay (3H-AVP displacement, HEK-293 membranes). On the set-up: expressed in transfected cells; host or cells: HEK-293 (membranes). The following applies: for inhibition at 1 µM: read-out: V1a@1.0, % Inh. In outline:
(§1)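 Each well: membranes, test compound (from 10% DMSO working stock), 3H-AVP. Buffer pH 7.5 with 0.1% BSA and protease inhibitors; 1 h, room temperature. Non-specific binding: 1.25 μM AVP. Filter, wash, count.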

The target of another test is human V2 receptor (Homo sapiens, UniProt P30518). The experiment in a line: V2 binding assay (3H-AVP displacement, HEK-293 membranes). The following applies: 1.0 μM compound; for inhibition at 1 µM: read-out: V2@1.0, % Inh. On the set-up: expressed in transfected cells; host or cells: HEK-293 (membranes). In outline: as §1
Chain of human V2 receptor (P30518 whole entry): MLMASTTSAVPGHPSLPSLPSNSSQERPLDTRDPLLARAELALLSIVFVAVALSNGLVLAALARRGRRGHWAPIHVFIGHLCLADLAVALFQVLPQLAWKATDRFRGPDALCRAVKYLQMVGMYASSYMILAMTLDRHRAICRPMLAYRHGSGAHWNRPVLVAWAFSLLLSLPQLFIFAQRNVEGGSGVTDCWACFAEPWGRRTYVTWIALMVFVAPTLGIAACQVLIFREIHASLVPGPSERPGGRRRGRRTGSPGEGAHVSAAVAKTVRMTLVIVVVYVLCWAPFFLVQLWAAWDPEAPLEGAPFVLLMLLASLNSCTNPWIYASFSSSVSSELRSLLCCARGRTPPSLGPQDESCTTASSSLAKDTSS
Another test has as its target T1, NPY2 receptors (Homo sapiens, UniProt P49146).
T1 construct: Cell Membranes from KAN-TS cells having NPY2 receptors; endogenous in cells; host or cells: KAN-TS cells (membranes)
T1 sequence (P49146 1-381): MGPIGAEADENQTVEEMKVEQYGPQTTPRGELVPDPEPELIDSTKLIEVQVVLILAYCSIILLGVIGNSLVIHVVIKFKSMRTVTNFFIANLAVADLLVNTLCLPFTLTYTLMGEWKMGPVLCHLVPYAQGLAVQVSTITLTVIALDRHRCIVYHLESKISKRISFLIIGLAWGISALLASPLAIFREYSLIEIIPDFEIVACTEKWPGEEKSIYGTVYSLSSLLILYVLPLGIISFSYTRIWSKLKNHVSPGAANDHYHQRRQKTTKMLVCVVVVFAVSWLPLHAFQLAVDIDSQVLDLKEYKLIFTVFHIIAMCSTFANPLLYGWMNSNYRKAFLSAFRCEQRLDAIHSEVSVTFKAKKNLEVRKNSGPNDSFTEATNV
The experiment in a line: Neuropeptide Y receptor binding assay (125I-PYY, KAN-TS cell membranes). The following applies: 10 μM compound; for inhibition at 10 µM: read-out: NPY-2@10, % Inh. In outline:
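Membranes from KAN-TS cells competed with 125I-PYY in binding buffer containing BSA, test compound at 10 μM final, 1 hr at room temperature. Nonspecific binding defined with 1 μM PYY final. Tubes centrifuged, washed with PBS and bound radioactivity gamma-counted.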

A further test concerns the target T2, human V1b receptor (Homo sapiens, UniProt P47901).
T2 sequence (P47901 1-424): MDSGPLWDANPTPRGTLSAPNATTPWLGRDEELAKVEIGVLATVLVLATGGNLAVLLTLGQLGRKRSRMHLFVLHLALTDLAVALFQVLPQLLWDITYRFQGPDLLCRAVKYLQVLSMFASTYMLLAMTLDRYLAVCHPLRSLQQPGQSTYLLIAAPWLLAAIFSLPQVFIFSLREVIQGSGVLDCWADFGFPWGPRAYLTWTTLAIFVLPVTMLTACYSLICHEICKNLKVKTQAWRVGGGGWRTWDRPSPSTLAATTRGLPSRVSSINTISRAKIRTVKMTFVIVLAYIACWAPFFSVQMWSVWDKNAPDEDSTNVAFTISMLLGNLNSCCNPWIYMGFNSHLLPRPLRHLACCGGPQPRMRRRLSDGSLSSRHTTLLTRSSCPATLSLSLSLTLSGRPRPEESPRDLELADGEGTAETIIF
The experiment in a line: V1b binding assay (3H-AVP displacement, HEK-293 membranes). As to conditions: for inhibition at 10 µM: 10 μM compound, read-out: V1b % Inh @10; for inhibition at 1 µM: read-out: V1b@1.0, % Inh. On the set-up: expressed in transfected cells; host or cells: HEK-293 (membranes). In outline: as §1

Chain of human V1a receptor (P37288 whole entry): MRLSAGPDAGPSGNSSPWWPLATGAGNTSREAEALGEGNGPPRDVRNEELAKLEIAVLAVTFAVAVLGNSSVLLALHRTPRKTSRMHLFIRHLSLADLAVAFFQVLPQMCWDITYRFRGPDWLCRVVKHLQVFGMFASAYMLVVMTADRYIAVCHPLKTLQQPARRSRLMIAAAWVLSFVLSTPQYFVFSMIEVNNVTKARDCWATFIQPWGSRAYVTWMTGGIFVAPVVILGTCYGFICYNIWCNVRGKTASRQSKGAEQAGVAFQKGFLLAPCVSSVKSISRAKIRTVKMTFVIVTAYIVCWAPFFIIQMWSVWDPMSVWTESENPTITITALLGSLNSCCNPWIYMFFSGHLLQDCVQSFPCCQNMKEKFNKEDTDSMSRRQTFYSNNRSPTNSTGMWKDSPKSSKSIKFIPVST

Take `CC(=O)NCCCn1c(=O)n(C2CCN(C(=S)NC(c3ccccc3)c3ccccc3)CC2)c2ccccc21` [Compound 76, 1-[(N1-Piperidinocarbothioyldiphenylmethylamino)-4-yl]-3-(3-acetamidopropyl)-1,3-dihydrobenzimidazol-2-one]: the IC50 – broadly, the concentration that inhibits the measured activity by half – at human V1a receptor turned out to be 250 nM. For the same molecule, on human V2 receptor, the inhibition at 1 µM turned out to be 0%. Moreover, the inhibition at 10 µM turned out to be 41% at NPY2 receptors and 25% on human V1b receptor.

In the case of `NCCCn1c(=O)n(C2CCN(C(=O)NC(c3ccccc3)c3ccccc3)CC2)c2ccccc21` [Compound 77, 1-[(N1-Piperidinocarbonyldiphenylmethylamino)-4-yl]-3-(3-aminopropyl)-1,3-dihydrobenzimidazol-2-one], on human V1a receptor, the IC50 stood at 79 nM. The inhibition at 1 µM at human V2 receptor was found to be 0%. Moreover, the inhibition at 10 µM at NPY2 receptors was found to be 10%; at human V1b receptor it was 30%.

Regarding `CN1CCN(CCCn2c(=O)n(C3CCN(C(=S)NC(c4ccccc4)c4ccccc4)CC3)c3ccccc32)CC1` [Compound 78, 1-[(N1-piperidinocarbothioylbiphenylmethylamino)-4-yl]-3-(3-N-(N-Methylpiperazino)propyl)-1,3-dihydrobenzimidazol-2-one], the figures for the inhibition at 1 µM on human V1a receptor (1.0 μM compound) and at human V2 receptor were 95% and 17%, respectively. Moreover, the inhibition at 10 µM on NPY2 receptors amounted to 74%; at human V1b receptor, 41%.

At human V1a receptor, `CCCN(CCC)CCCn1c(=O)n(C2CCN(C(=S)NC(c3ccccc3)c3ccccc3)CC2)c2ccccc21` [Compound 79, 1-[(N1-piperidinocarbothioylbiphenylmethylamino)-4-yl]-3-(3-N,N-dipropylaminopropyl)-1,3-dihydrobenzimidazol-2-one] registered an IC50 of 16 nM. The results for the inhibition at 1 µM at human V2 receptor and on human V1b receptor (1.0 μM compound) were 13% and 48%, respectively. In addition, on NPY2 receptors, the inhibition at 10 µM worked out at 80%.

On to `O=c1n(CCCN2CCCCC2)c2ccccc2n1C1CCN(C(=S)NC(c2ccccc2)c2ccccc2)CC1` [Compound 81, 1-[(N1-piperidinocarbothioylbiphenylmethylamino)-4-yl]-3-(3-N-piperidinylpropyl)-1,3-dihydrobenzimidazol-2-one], for which the half-maximal inhibitory concentration (IC50) at human V1a receptor was found to be 4 nM; at human V1b receptor it was 76 nM. For the same molecule, the inhibition at 1 µM on human V2 receptor turned out to be 18%. Besides, the inhibition at 10 µM on NPY2 receptors turned out to be 89%.

With `CC1CC(C)CN(CCCn2c(=O)n(C3CCN(C(=S)NC(c4ccccc4)c4ccccc4)CC3)c3ccccc32)C1` (stereo not drawn) [Compound 82], the IC50 came to 6 nM on human V1a receptor and 140 nM at human V1b receptor. In addition, the inhibition at 1 µM on human V2 receptor amounted to 11%. The inhibition at 10 µM on NPY2 receptors was found to be 91%.

As to `CCOC(=O)C1CCN(CCCn2c(=O)n(C3CCN(C(=S)NC(c4ccccc4)c4ccccc4)CC3)c3ccccc32)CC1` [Compound 83, 1-[(N1-piperidinocarbothioylbiphenylmethylamino)-4-yl]-3-[3-(4-ethylcarboxypiperidine)propyl]-1,3-dihydrobenzimidazol-2-one], the half-maximal inhibitory concentration (IC50) at human V1a receptor came to 44 nM. For the same molecule, the inhibition at 1 µM at human V2 receptor worked out at 2%; on human V1b receptor (1.0 μM compound), 47%. Besides, on NPY2 receptors, the inhibition at 10 µM is 79%.

As for `O=c1n(CCCN2CCOCC2)c2ccccc2n1C1CCN(C(=S)NC(c2ccccc2)c2ccccc2)CC1` [Compound 84, 1-[(N1-piperidinocarbothioylbiphenylmethylamino)-4-yl]-3-(3-morpholinopropyl)-1,3-dihydrobenzimidazol-2-one], the IC50 is 22 nM at human V1a receptor and 274 nM on human V1b receptor. The inhibition at 1 µM on human V2 receptor is 8%. At NPY2 receptors, the inhibition at 10 µM is 73%.

On to `CCN(CC)CCCn1c(=O)n(C2CCN(C(=S)NC(c3ccccc3)c3ccccc3)CC2)c2ccccc21` [Compound 85, 1-[(N1-piperidinocarbothioylbiphenylmethylamino)-4-yl]-3-(3-N,N-diethylaminopropyl)-1,3-dihydrobenzimidazol-2-one], for which the 50% inhibitory concentration (IC50) on human V1a receptor came to 20 nM; on human V1b receptor, 230 nM. The inhibition at 1 µM on human V2 receptor was determined as 8%. The inhibition at 10 µM on NPY2 receptors stood at 81%.

As for `COC(=O)C(Cc1ccccc1)NC(=S)N1CCC(n2c(=O)n(CCCN3CCCC3)c3ccccc32)CC1` [Compound 86, 1-[(N1-Piperidinocarbothioyl-(2-phenyl-1-L-carboxymethyl)amino-4-yl)-4-yl]-3-(3-pyrrolidinylpropyl)-1,3-dihydrobenzimidazol-2-one], the half-maximal inhibitory concentration (IC50) on human V1a receptor is 13 nM; at human V1b receptor, 1190 nM. Besides, the inhibition at 1 µM at human V2 receptor was 3%. Further, on NPY2 receptors, the inhibition at 10 µM came to 10%.

For `COc1ccccc1NC(=S)N1CCC(n2c(=O)n(CCCN3CCCC3)c3ccccc32)CC1` [Compound 87, 1-[(N1-Piperidinocarbothioyl-(2-methoxyphenyl)amino)-4-yl]-3-(3-pyrrolidinylpropyl)-1,3-dihydrobenzimidazol-2-one], the “V1a@1.0, % Inh” value on human V1a receptor (1.0 μM compound) is given as 30%. Further, the “V2@1.0, % Inh” value on human V2 receptor was 3%. Further, the “NPY-2@10, % Inh” value on NPY2 receptors was found to be 13%. Also, on human V1b receptor (1.0 μM compound), the “V1b@1.0, % Inh” value is recorded as 23%.

Take `O=C(NCc1ccccc1F)N1CCC(n2c(=O)n(CCCN3CCCC3)c3ccccc32)CC1` [Compound 89]: the inhibition at 1 µM at human V1a receptor (1.0 μM compound) came out at 34%; on human V2 receptor it was 0%; on human V1b receptor (1.0 μM compound), 10%. Moreover, the inhibition at 10 µM on NPY2 receptors was 8%.

In turn, `CCN(CC)CCn1c(=O)n(C2CCN(C(=S)NCc3ccccc3-c3ccccc3)CC2)c2ccccc21` [Compound 90, 1-(N1-Piperidinocarbothioyl-(2-phenylbenzylamino)-4-yl)-3-(2-diethyaminoethyl)benzimidazol-2-one] had an IC50 at human V1a receptor of 62 nM. Also, the inhibition at 1 µM on human V2 receptor is 5%; at human V1b receptor (1.0 μM compound), 27%. Besides, the inhibition at 10 µM at NPY2 receptors came out at 13%.

Regarding `CCN(CC)CCn1c(=O)n(C2CCN(C(=O)NC(c3ccccc3)c3ccccc3)CC2)c2ccccc21` [Compound 91, 1-(N1-Piperidinocarbonyldiphenylmethylamino-4-yl)-3-(2-N,N-diethyaminoethyl)benzimidazol-2-one], the inhibition at 1 µM on human V1a receptor (1.0 μM compound) amounted to 64%; on human V2 receptor it was 0%; at human V1b receptor (1.0 μM compound), 24%. Besides, the inhibition at 10 µM at NPY2 receptors was determined as 56%.

For `CCN(CC)CCn1c(=O)n(C2CCN(C(=O)Nc3ccccc3C)CC2)c2ccccc21` [Compound 92, 1-[(N1-Piperidinocarbonyl-2-methylphenylamino)-4-yl]-3-(2-N,Ndiethylaminoethyl)-1,3-dihydrobenzimidazol-2-one], the inhibition at 1 µM on human V1a receptor (1.0 μM compound) stood at 3%; at human V2 receptor it was 3%; on human V1b receptor (1.0 μM compound), 5%. The inhibition at 10 µM on NPY2 receptors was determined as 0%.

In the case of `CN1CCCC1CCn1c(=O)n(C2CCN(C(=S)NC(c3ccccc3)c3ccccc3)CC2)c2ccccc21` (stereo not drawn) [Compound 93], the IC50 on human V1a receptor came out at 49 nM. Moreover, the inhibition at 1 µM at human V2 receptor was 0%; at human V1b receptor (1.0 μM compound), 48%. The inhibition at 10 µM on NPY2 receptors came to 17%.

On to `CN1CCCC1CCn1c(=O)n(C2CCN(C(=O)NC(c3ccccc3)c3ccccc3)CC2)c2ccccc21` (stereo not drawn) [Compound 94], for which the inhibition at 1 µM on human V1a receptor (1.0 μM compound) stood at 68%; on human V2 receptor it was 8%; on human V1b receptor (1.0 μM compound), 33%. At NPY2 receptors, the inhibition at 10 µM worked out at 78%.

Take `O=C(NC(c1ccccc1)c1ccccc1)N1CCC(n2c(=O)n(CCCN3CCOCC3)c3ccccc32)CC1` [Compound 95, 1-[(N1-piperidinocarbonylbiphenylmethylamino)-4-yl]-3-(3-morpholinopropyl)-1,3-dihydrobenzimidazol-2-one]: the IC50 at human V1a receptor amounted to 162 nM. Also, the values for the inhibition at 1 µM at human V2 receptor and on human V1b receptor (1.0 μM compound) were 2% and 23%, respectively. Besides, the inhibition at 10 µM on NPY2 receptors was found to be 0%.
